Data reported in PubChem BioAssay AID272 (DTP/NCI, 2004).
Several values for one entry are separate records, joined by “and”; a condition that tells them apart may be missing. Identical values can stand only once. Results filed as inconclusive are left out.

Tested on: Lewis lung carcinoma i.m., BDF1 mice, T/C %
Experiment: NCI In Vivo Anticancer Drug Screen. Data for tumor model Lewis Lung Carcinoma (intramuscular) in B6D2F1 (BDF1) mice
Outline: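 Compound given to mice with transplantable tumours; survival or tumour size compared against the vehicle control group, reported as T divided by C.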

[1] = endpoint: median survival time, dose: 6.25 mg/kg/injection, schedule: Q01DX011 (ip), vehicle: Klucel (hydroxypropylcellulose) (HPC), higher = longer survival
[2] = endpoint: median survival time, dose: 12.5 mg/kg/injection, schedule: Q01DX011 (ip), vehicle: Klucel (hydroxypropylcellulose) (HPC), higher = longer survival
[3] = endpoint: median survival time, dose: 25.0 mg/kg/injection, schedule: Q01DX011 (ip), vehicle: Klucel (hydroxypropylcellulose) (HPC), higher = longer survival

CC(C)NCC(O)COc1cccc2ccccc12 (stereo not drawn)
T/C (endpoint: median survival time, dose: 8.0 mg/kg/injection, schedule: Q01DX009 (ip), vehicle: Klucel (hydroxypropylcellulose) (HPC), higher = longer survival): 121 % of control | T/C (endpoint: median survival time, dose: 16.0 mg/kg/injection, schedule: Q01DX009 (ip), vehicle: Klucel (hydroxypropylcellulose) (HPC), higher = longer survival): 121 % of control | T/C (endpoint: median survival time, dose: 32.0 mg/kg/injection, schedule: Q01DX009 (ip), vehicle: Klucel (hydroxypropylcellulose) (HPC), higher = longer survival): 90 % of control | T/C (endpoint: median survival time, dose: 64.0 mg/kg/injection, schedule: Q01DX009 (ip), vehicle: Klucel (hydroxypropylcellulose) (HPC), higher = longer survival): 110 % of control

COc1cc([C@@H]2c3cc4c(cc3C[C@H]3COC(=O)[C@@H]32)OCO4)cc(OC)c1OC
T/C (endpoint: mean tumor weight (est.), dose: 5.0 mg/kg/injection, schedule: Q01DX011 (ip), vehicle: saline, higher = larger tumour): 68 % of control | T/C (endpoint: mean tumor weight (est.), dose: 10.0 mg/kg/injection, schedule: Q01DX011 (ip), vehicle: saline, higher = larger tumour): 54 % of control | T/C (endpoint: mean tumor weight, dose: 6.25 mg/kg/injection, schedule: Q01DX011 (ip), vehicle: saline, higher = larger tumour): 100 % of control | T/C (endpoint: mean tumor weight, dose: 12.5 mg/kg/injection, schedule: Q01DX011 (ip), vehicle: saline, higher = larger tumour): 70 % of control | T/C (endpoint: median survival time, dose: 6.25 mg/kg/injection, schedule: Q01DX011 (ip), vehicle: saline, higher = longer survival): 100 % of control | T/C (endpoint: median survival time, dose: 12.5 mg/kg/injection, schedule: Q01DX011 (ip), vehicle: saline, higher = longer survival): 87 % of control

O=C1CN=C(c2ccc[nH]2)c2cc(Cl)ccc2N1
T/C (endpoint: mean tumor weight, dose: 6.25 mg/kg/injection, schedule: Q01DX011 (ip), vehicle: Klucel (hydroxypropylcellulose) (HPC), higher = larger tumour): 74 % of control | T/C (endpoint: mean tumor weight, dose: 12.5 mg/kg/injection, schedule: Q01DX011 (ip), vehicle: Klucel (hydroxypropylcellulose) (HPC), higher = larger tumour): 111 % of control | T/C (endpoint: mean tumor weight, dose: 25.0 mg/kg/injection, schedule: Q01DX011 (ip), vehicle: Klucel (hydroxypropylcellulose) (HPC), higher = larger tumour): 82 % of control | T/C (endpoint: mean tumor weight, dose: 50.0 mg/kg/injection, schedule: Q01DX011 (ip), vehicle: Klucel (hydroxypropylcellulose) (HPC), higher = larger tumour): 96 % of control | T/C (endpoint: mean tumor weight, dose: 100.0 mg/kg/injection, schedule: Q01DX011 (ip), vehicle: Klucel (hydroxypropylcellulose) (HPC), higher = larger tumour): 95 % of control | T/C [1]: 97 % of control | T/C [2]: 100 % of control | T/C [3]: 88 % of control and 111 % of control | T/C (endpoint: median survival time, dose: 50.0 mg/kg/injection, schedule: Q01DX011 (ip), vehicle: Klucel (hydroxypropylcellulose) (HPC), higher = longer survival): 102 % of control | T/C (endpoint: median survival time, dose: 100.0 mg/kg/injection, schedule: Q01DX011 (ip), vehicle: Klucel (hydroxypropylcellulose) (HPC), higher = longer survival): 100 % of control

COc1cc([C@@H]2c3cc4c(c(O)c3C[C@H]3COC(=O)[C@@H]32)OCO4)cc(OC)c1OC
T/C (endpoint: mean tumor weight (est.), dose: 0.5 mg/kg/injection, schedule: Q01DX011 (ip), vehicle: Klucel (hydroxypropylcellulose) (HPC), higher = larger tumour): 106 % of control | T/C (endpoint: mean tumor weight (est.), dose: 2.0 mg/kg/injection, schedule: Q01DX011 (ip), vehicle: Klucel (hydroxypropylcellulose) (HPC), higher = larger tumour): 93 % of control

CCCCC(CCC)(CCN)CCCC
T/C (endpoint: mean tumor weight (est.), dose: 1.0 mg/kg/injection, schedule: Q01DX011 (ip), vehicle: saline with Tween-80, higher = larger tumour): 90 % of control | T/C (endpoint: mean tumor weight (est.), dose: 2.0 mg/kg/injection, schedule: Q01DX011 (ip), vehicle: saline with Tween-80, higher = larger tumour): 97 % of control | T/C (endpoint: mean tumor weight (est.), dose: 4.0 mg/kg/injection, schedule: Q01DX011 (ip), vehicle: saline with Tween-80, higher = larger tumour): 102 % of control | T/C (endpoint: mean tumor weight (est.), dose: 8.0 mg/kg/injection, schedule: Q01DX011 (ip), vehicle: saline with Tween-80, higher = larger tumour): 69 % of control | T/C (endpoint: median survival time, dose: 1.0 mg/kg/injection, schedule: Q01DX011 (ip), vehicle: saline with Tween-80, higher = longer survival): 103 % of control | T/C (endpoint: median survival time, dose: 2.0 mg/kg/injection, schedule: Q01DX011 (ip), vehicle: saline with Tween-80, higher = longer survival): 92 % of control | T/C (endpoint: median survival time, dose: 4.0 mg/kg/injection, schedule: Q01DX011 (ip), vehicle: saline with Tween-80, higher = longer survival): 94 % of control | T/C (endpoint: median survival time, dose: 8.0 mg/kg/injection, schedule: Q01DX011 (ip), vehicle: saline with Tween-80, higher = longer survival): 92 % of control

O=C(CCBr)N1CCN(C(=O)CCBr)CC1
T/C (endpoint: mean tumor weight, dose: 50.0 mg/kg/injection, schedule: Q01DX011 (ip), vehicle: steriod suspending solution, higher = larger tumour): 73 % of control | T/C (endpoint: mean tumor weight, dose: 100.0 mg/kg/injection, schedule: Q01DX011 (ip), vehicle: steriod suspending solution, higher = larger tumour): 73 % of control | T/C (endpoint: mean tumor weight, dose: 200.0 mg/kg/injection, schedule: Q01DX011 (ip), vehicle: steriod suspending solution, higher = larger tumour): 37 % of control

CC(C)(C)CC(C)(C)NCC(O)COc1ccc(C(C)(C)c2ccc(OCC(O)CNC(C)(C)CC(C)(C)C)cc2)cc1 (stereo not drawn)
T/C (endpoint: mean tumor weight (est.), dose: 3.12 mg/kg/injection, schedule: Q01DX011 (ip), vehicle: other, higher = larger tumour): 68 % of control

CCn1cnc2c(=S)nc[nH]c21
T/C (endpoint: mean tumor weight (est.), dose: 25.0 mg/kg/injection, schedule: Q01DX011 (ip), vehicle: Klucel (hydroxypropylcellulose) (HPC), higher = larger tumour): 110 % of control | T/C (endpoint: mean tumor weight, dose: 1.56 mg/kg/injection, schedule: Q01DX011 (ip), vehicle: steriod suspending solution, higher = larger tumour): 81 % of control | T/C (endpoint: mean tumor weight, dose: 6.25 mg/kg/injection, schedule: Q01DX011 (ip), vehicle: steriod suspending solution, higher = larger tumour): 86 % of control | T/C (endpoint: median survival time, dose: 0.78 mg/kg/injection, schedule: Q01DX011 (ip), vehicle: Klucel (hydroxypropylcellulose) (HPC), higher = longer survival): 100 % of control | T/C (endpoint: median survival time, dose: 1.56 mg/kg/injection, schedule: Q01DX011 (ip), vehicle: Klucel (hydroxypropylcellulose) (HPC), higher = longer survival): 104 % of control | T/C (endpoint: median survival time, dose: 3.12 mg/kg/injection, schedule: Q01DX011 (ip), vehicle: Klucel (hydroxypropylcellulose) (HPC), higher = longer survival): 106 % of control | T/C [1]: 102 % of control and 108 % of control | T/C [2]: 106 % of control | T/C [3]: 95 % of control and 104 % of control
